This is an account of results in US20170252392A1, “COMPOSITION FOR IMPROVEMENT, TREATMENT OR PREVENTION OF CONSTIPATION COMPRISING CASSIA SEED LACTIC ACID BACTERIA FERMENTED PRODUCT AS EFFECTIVE INGREDIENT, AND METHOD FOR PREPARING SAME” (HAENAM NATURAL FARMING ASSOCIATION COOPERATION, priority 2014, published 2017).

The subject of assay [1] is Sprague-Dawley (SD) rats with loperamide-induced constipation. Kind of assay: Prevention of loperamide-induced constipation: number and weight of feces (Experimental Example 2). Type of assay: in vivo, rat. The procedure:
Four-week-old male Sprague-Dawley (SD) rats were purchased from Damul Science (Daejeon, Korea) and bred at a temperature of 20±2° C. and a humidity of 55±5% on a 12 h light-dark cycle. The experimental animals were acclimated for 1 week after purchase and were divided into the experimental groups (5 animals per group) shown in Table 3.
All experimental groups other than the normal control (NOR) and the negative control (LOP) were administered orally the respective drugs (positive controls) or the respective fermented products of Preparative Example 4 for 5 days before loperamide administration.
The negative control (LOP), the positive controls (CON1, CON2), and all experimental groups other than the normal control (NOR) were administered subcutaneously loperamide for 5 days to induce constipation. The experimental animals were sacrificed on day 6 after initiation of the loperamide administration.

The test system is the same in assay [2]. Description: Colonic transits of carmine dye (Experimental Example 3). Type of assay: in vivo, rat. The following applies: 20 min after oral carmine dye. The procedure:
At day 6, 3 mL of carmine dye at a concentration of 1.5% (w/v) in physiological saline was administered orally to the experimental animals. 20 min after the oral administration, the experimental animals were sacrificed. Thereafter, in each experimental animal, both ends of the site of the colon from the appendix to the rectum were ligated. The colon site was excised and washed with PBS. The colonic transits of the carmine dye were measured from FIG. 6.

With `CN(C)C(=O)C(CCN1CCC(O)(c2ccc(Cl)cc2)CC1)(c1ccccc1)c1ccccc1` [loperamide], the Weight of feces in assay [1] (negative control (LOP): loperamide 4 mg/kg subcutaneously for 5 days, normal control 4.8±0.89) was 2.6±0.32. Also, the Number of feces in assay [1] (negative control (LOP): loperamide 4 mg/kg subcutaneously for 5 days, normal control 47.2±5.8) worked out at 23.1±3.6. The “Colonic transit of the carmine dye” value in assay [2] (negative control (LOP): loperamide 4 mg/kg s.c. 5 days, normal control 13.4±0.94 cm) turned out to be 6.6±0.75 cm.
In the case of sennoside, the Number of feces entry in assay [1] (sennoside 50 mg/kg oral before loperamide 4 mg/kg s.c. 5 days (CON1)) is “more effective in increasing the number of feces than Dulcolax-S”. Also, the Weight of feces entry in assay [1] (sennoside 50 mg/kg oral before loperamide (CON1), compared with CON2) is “no significant difference in the weight of feces”. The “Colonic transit of the carmine dye” value in assay [2] (sennoside 50 mg/kg oral before loperamide (CON1)) is recorded as “significantly increased compared to that in the negative control (LOP)”.
